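Each compound was tested at five concentrations against cells in 96-well plates for 48 hours. At the GI50, growth is halved. TGI: total growth inhibition.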
Key:
Assay in all cases: inhibition of tumour cell growth, NCI panel, 48 h
[1] = tested on: TK-10 renal
[2] = tested on: A498 renal
[3] = tested on: LOX IMVI melanoma
[4] = tested on: SK-MEL-2 melanoma
[5] = tested on: NCI-H522 lung
[6] = tested on: HCT-116 colon
[7] = tested on: 786-0 renal
[8] = tested on: UACC-257 melanoma
[9] = tested on: ACHN renal
[10] = tested on: EKVX NSCLC
[11] = tested on: MOLT-4 leukemia
[12] = tested on: MDA-MB-468 breast
[13] = tested on: RXF 393 renal
[14] = tested on: M14 melanoma
[15] = tested on: K-562 leukemia
[16] = tested on: SK-OV-3 ovarian
[17] = tested on: HT29 colon
[18] = tested on: SR leukemia
[19] = tested on: IGROV1 ovarian
[20] = tested on: CAKI-1 renal
[21] = tested on: BT-549 breast
[22] = tested on: SN12C renal
[23] = tested on: KM12 colon
[24] = tested on: COLO 205 colon
[25] = tested on: OVCAR-4 ovarian
[26] = tested on: OVCAR-8 ovarian
[27] = tested on: SW-620 colon
[28] = tested on: HOP-92 NSCLC
[29] = tested on: U251 CNS

Q: For `CC1=C(C(=O)Nc2ccccc2)C(c2ccc3ccccc3c2)n2c(nc3ccccc32)N1` (stereo not drawn), which GI50 [1] is on record?
A: The GI50 was 19.3 µM.

Q: What about the TGI [1] of the same molecule?
A: Its TGI is 48.6 µM.

Q: What about the GI50 [2] of the same molecule?
A: The GI50 was 23.3 µM.

Q: What about the TGI [2] of the same molecule?
A: Its TGI is 63.3 µM.

Q: What about the GI50 [3] of the same molecule?
A: Its GI50 is 14.3 µM.

Q: What about the TGI [3] of the same molecule?
A: The TGI was 31 µM.

Q: What about the GI50 [4] of the same molecule?
A: The GI50 was 22.1 µM.

Q: What about the TGI [4] of the same molecule?
A: The TGI was 71.5 µM.

Q: What about the GI50 [5] of the same molecule?
A: The GI50 was 18.1 µM.

Q: And the TGI [5]?
A: Its TGI is 45.7 µM.

Q: What about the GI50 [6] of the same molecule?
A: The GI50 was 13.4 µM.

Q: And the TGI [6]?
A: Its TGI is 33.1 µM.

Q: What about the GI50 [7] of the same molecule?
A: Its GI50 is 19.6 µM.

Q: And the TGI [7]?
A: The TGI was 38.6 µM.

Q: And the GI50 [8]?
A: Its GI50 is 67.1 µM.

Q: And the TGI [8]?
A: The TGI was greater than 100 µM.

Q: What about the GI50 [9] of the same molecule?
A: Its GI50 is 17 µM.

Q: And the TGI [9]?
A: The TGI was 35.3 µM.

Q: And the GI50 [10]?
A: Its GI50 is 16 µM.

Q: What about the TGI [10] of the same molecule?
A: Its TGI is 46.2 µM.

Q: And the GI50 [11]?
A: Its GI50 is 5.71 µM.

Q: And the TGI [11]?
A: Its TGI is 72 µM.

Q: And the GI50 [12]?
A: Its GI50 is 14.1 µM.

Q: And the TGI [12]?
A: The TGI was 35.1 µM.

Q: And the GI50 [13]?
A: The GI50 was 11.8 µM.

Q: And the TGI [13]?
A: Its TGI is 40.5 µM.

Q: And the GI50 [14]?
A: Its GI50 is 33.4 µM.

Q: And the TGI [14]?
A: The TGI was greater than 100 µM.

Q: What about the GI50 [15] of the same molecule?
A: Its GI50 is 7.06 µM.

Q: And the TGI [15]?
A: Its TGI is greater than 100 µM.

Q: And the GI50 [16]?
A: Its GI50 is 21.5 µM.

Q: And the TGI [16]?
A: Its TGI is 85.7 µM.

Q: And the GI50 [17]?
A: Its GI50 is 24.4 µM.

Q: And the TGI [17]?
A: Its TGI is 69.2 µM.

Q: What about the GI50 [18] of the same molecule?
A: The GI50 was 22 µM.

Q: What about the TGI [18] of the same molecule?
A: Its TGI is greater than 100 µM.

Q: What about the GI50 [19] of the same molecule?
A: The GI50 was 25.8 µM.

Q: And the TGI [19]?
A: Its TGI is 85.7 µM.

Q: And the GI50 [20]?
A: The GI50 was 19.2 µM.

Q: What about the TGI [20] of the same molecule?
A: Its TGI is 56.3 µM.

Q: What about the GI50 [21] of the same molecule?
A: Its GI50 is 28 µM.

Q: And the TGI [21]?
A: Its TGI is greater than 100 µM.

Q: And the GI50 [22]?
A: The GI50 was 17.1 µM.

Q: What about the TGI [22] of the same molecule?
A: Its TGI is 40.2 µM.

Q: What about the GI50 [23] of the same molecule?
A: Its GI50 is 31.9 µM.

Q: And the TGI [23]?
A: Its TGI is greater than 100 µM.

Q: And the GI50 [24]?
A: The GI50 was 26.5 µM.

Q: What about the TGI [24] of the same molecule?
A: The TGI was greater than 100 µM.

Q: And the GI50 [25]?
A: The GI50 was 15.4 µM.

Q: What about the TGI [25] of the same molecule?
A: Its TGI is 45.3 µM.

Q: And the GI50 [26]?
A: Its GI50 is 16.9 µM.

Q: And the TGI [26]?
A: The TGI was 35.9 µM.

Q: And the GI50 [27]?
A: The GI50 was 22.3 µM.

Q: What about the TGI [27] of the same molecule?
A: The TGI was greater than 100 µM.

Q: What about the GI50 [28] of the same molecule?
A: The GI50 was 15.3 µM.

Q: And the TGI [28]?
A: Its TGI is 36.5 µM.

Q: What about the GI50 [29] of the same molecule?
A: Its GI50 is 16.3 µM.

Q: And the TGI [29]?
A: Its TGI is 32.5 µM.
